# Results: article PMC5093981 (Malaria Journal, 2016)
# How the values were obtained:
# [1] = test system: PfRuvB3; assay: PfRuvB3 unwinding activity: requirement of co-factors and effects of salt/EDTA; format: biochemical, Plasmodium falciparum; details: for Relative activity (%), PfRuvB3 unwinding activity: standard reaction = 35
# Experimental: (§1) Unwinding of [^32P]-labelled partial duplex DNA was employed as a measurement of helicase activity. The reaction mixture (10 µl) contained 20 mM Tris–HCl pH 9.0, 8 mM DTT, 2 mM MgCl2, 2 mM ATP, 10 mM KCl, 4% (w/v) sucrose, […] BSA, [^32P]-labelled DNA duplex substrate (Table 1) and purified PfRuvB3. The assay was performed at 37 °C for 90 min (unless indicated otherwise) and terminated with addition of 10X DNA loading dye (Fermentas, USA) and further incubation at 37 °C for 5 min. Helicase substrate and product were separated by 12% non-denaturing PAGE and then the gel was exposed to an X-ray film. DNA unwinding was quantified by densitometric analysis of exposed substrate and product bands using GeneTools (Syngene). Percent unwinding is calculated using the following formula: [band density of product [single-stranded (ss)DNA] / (band density of ssDNA + band density of substrate (duplex DNA)] × 100 minus [percent unwinding in the absence of enzyme].
# The ability of PfRuvB3 to hydrolyze different NTPs was studied by including 2 mM dATP, dCTP, dGTP, or dTTP in place of ATP in the standard reaction assay. The effects of ATP concentrations ranging from 0.3 to 20 mM on helicase activity were also determined. Divalent cation requirement was investigated mixture 2 mM CaCl2, CuCl2, NiSO4, ZnCl2, FeSO4, MnCl2 or MgSO4 in place of MgCl2. Effects of salt (0-200 mM NaCl in place of 10 mM KCl) and EDTA (5 mM) also were evaluated.
# [2] = molecular target: PfRuvB3; assay: Effect of DNA helicase inhibitors on PfRuvB3 unwinding (helicase) activity; format: biochemical, Plasmodium falciparum; details: recombinant PfRuvB3; M13-17-mer duplex DNA pre-incubated with 0.1 to 50 μM drug for 10 min; 37 °C 90 min
# Experimental: as §1
# Known DNA helicase inhibitors, aphidicolin genistein, daunorubicin, doxorubicin, mitoxantrone, and netropsin (Sigma, USA) were prepared as 10^−2 M stock solutions in dimethylsulfoxide (DMSO) and stored at −20 °C until used. All compounds were diluted with 10 mM Tris–HCl, pH 9.0 to specified concentrations for the assay. M13-17-mer duplex DNA was pre-incubated with 0.1 to 50 μM drug for 10 min prior to addition to the standard helicase assay mixture. The 0.5% (v/v final concentration) of DMSO was used as solvent control to determine its effects on helicase activity. The dose–response curves of relative activities of PfRuvB3 and various drug concentrations were generated, and half-maximal inhibitory concentration (IC50), the concentration of compound to inhibit enzyme activity by 50%, was obtained using GraphPad Prism 6.01 software.
# [3] = molecular target: P. falciparum 60 kDa DNA helicase (PfDH60); design: method as in PMID 16884495; details: cited from earlier work
# [4] = molecular target: P. falciparum UvrD helicase (PfUDN); details: cited from earlier work
# [5] = molecular target: P. falciparum DNA helicase A (PfDH A); design: method as in PMID 16772048; details: cited from earlier work
# [6] = test system: parasite growth; design: method as in PMID 16772048; details: read-out: IC50, parasite growth inhibition; cited from earlier work
# [7] = molecular target: P. falciparum 45 kDa helicase (PfH45); design: method as in PMID 17822710; details: cited from earlier work
# [8] = molecular target: human DNA helicase (HDH II); design: method as in PMID 1614415; details: cited from earlier work
# [9] = test system: P. falciparum Dbp5/DDX19 homolog (PfD66); design: method as in PMID 21980563; details: cited from earlier work
# [10] = 2 mM divalent cation salt in place of MgCl2, 1 μg PfRuvB3
# [11] = 2 mM dNTP in place of ATP, 1 μg PfRuvB3
smiles,measurement,setting,value
[Ca+2].[Cl-].[Cl-] [CaCl2],"Relative activity (%), PfRuvB3 unwinding activity",[1]; [10],<2%
[Cl][Cu][Cl] [CuCl2],"Relative activity (%), PfRuvB3 unwinding activity",[1]; [10],36%
O=C(O)CN(CCN(CC(=O)O)CC(=O)O)CC(=O)O [EDTA],"Relative activity (%), PfRuvB3 unwinding activity",[1]; +EDTA (5 mM),<2%
same,Helicase function,[1]; EDTA 5 mM added to reaction mixture,complete loss of helicase function
O=S(=O)([O-])[O-].[Fe+2] [FeSO4],"Relative activity (%), PfRuvB3 unwinding activity",[1]; [10],<2%
O=S(=O)([O-])[O-].[Mg+2] [MgSO4],"Relative activity (%), PfRuvB3 unwinding activity",[1]; [10],37%
[Cl][Mn][Cl] [MnCl2],"Relative activity (%), PfRuvB3 unwinding activity",[1]; [10],<2%
[Cl-].[Na+] [NaCl],Unwinding activity of PfRuvB3,[1]; 100 mM NaCl,almost absent
same,"Relative activity (%), PfRuvB3 unwinding activity",[1]; +NaCl (200 mM),<2%
same,Enzyme activity inhibited,[1]; NaCl 200 mM,~98%
[Cl][Ni][Cl] [NiCl2],"Relative activity (%), PfRuvB3 unwinding activity",[1]; [10],34%
[Cl-].[Cl-].[Zn+2] [ZnCl2],"Relative activity (%), PfRuvB3 unwinding activity",[1]; [10],30%
C[C@@]1(CO)[C@H](O)CC[C@@]2(C)[C@H]1CC[C@H]1C[C@@H]3C[C@@]12CC[C@]3(O)CO [aphidicolin],IC50,[2],> 50 µM
Nc1ncnc2c1ncn2[C@H]1C[C@H](O)[C@@H](COP(=O)(O)OP(=O)(O)OP(=O)(O)O)O1 [dATP],"Relative activity (%), PfRuvB3 unwinding activity",[1]; [11],33%
Nc1ccn([C@H]2C[C@H](O)[C@@H](COP(=O)(O)OP(=O)(O)OP(=O)(O)O)O2)c(=O)n1 [dCTP],"Relative activity (%), PfRuvB3 unwinding activity",[1]; [11],<2%
Nc1nc2c(ncn2[C@H]2C[C@H](O)[C@@H](COP(=O)(O)OP(=O)(O)OP(=O)(O)O)O2)c(=O)[nH]1 [dGTP],"Relative activity (%), PfRuvB3 unwinding activity",[1]; [11],<2%
Cc1cn([C@H]2C[C@H](O)[C@@H](COP(=O)(O)OP(=O)(O)OP(=O)(O)O)O2)c(=O)[nH]c1=O [dTTP],"Relative activity (%), PfRuvB3 unwinding activity",[1]; [11],<2%
COc1cccc2c1C(=O)c1c(O)c3c(c(O)c1C2=O)C[C@@](O)(C(C)=O)C[C@@H]3O[C@H]1C[C@H](N)[C@H](O)[C@H](C)O1 [daunorubicin],IC50,[2],0.76 µM
same,IC50,[3],3 µM
same,IC50,[4],4.4 µM
same,IC50,[5],2 µM
same,IC50,[6],2.5 µM
same,IC50,[7],5 µM
same,IC50,[8],6.23 µM
COc1cccc2c1C(=O)c1c(O)c3c(c(O)c1C2=O)C[C@@](O)(C(=O)CO)C[C@@H]3O[C@H]1C[C@H](N)[C@H](O)[C@H](C)O1 [doxorubicin],IC50,[2],2.6 µM
same,IC50,[6],1.5 µM
O=c1c(-c2ccc(O)cc2)coc2cc(O)cc(O)c12 [genistein],IC50,[2],> 50 µM
O=C1c2c(O)ccc(O)c2C(=O)c2c(NCCNCCO)ccc(NCCNCCO)c21 [mitoxantrone],IC50,[2],> 50 µM
Cn1cc(NC(=O)c2cc(NC(=O)CN=C(N)N)cn2C)cc1C(=O)NCCC(=N)N [netropsin],IC50,[2],7.09 µM
same,IC50,[3],0.5 µM
same,IC50,[4],3.3 µM
same,IC50,[7],0.8 µM
same,IC50,[9],3.2 µM
